Measured values from patent publication US9636345B2, “Benzimidazole derivatives useful TRPM8 channel modulators” (Janssen Pharmaceutica NV, priority 2009, dated 2017).
Read-outs that look alike come from different tables or passages of the source.

Target: T1, canine TRPM8 (Canis lupus familiaris, UniProt Q1A7N1)
T1 construct: expressed in transfected cells
Experiment: In vitro canine TRPM8 functional assay (icilin-induced intracellular Ca2+ increase, FLIPR/FDSS)
Assay type: cell-based
Conditions: for % Inh @ 0.2 μM / inhibition at 0.2 µM: 0.2 μM compound, HEK293 canine TRPM8; for % Inh @ 1 μM / inhibition at 1 µM: 1 μM compound, samples diluted from 10 mM stock with 100% DMSO; for IC50: read-out: IC50
Method: The functional activity of representative compounds of the formula (I) of the present invention was quantified by measuring changes in intracellular calcium concentration using a Ca^2+-sensitive fluorescent dye. The changes in fluorescent signal were monitored by a fluorescence plate reader, either a FLIPR™ (Molecular Devices) or FDSS (Hamamatsu).
HEK293 cells stably expressing canine TRPM8 were routinely grown as monolayers in Dulbecco's minimum essential medium supplemented with 10% FBS, 2 mM L-glutamine, 100 units/mL penicillin, 100 ug/mL streptomycin and 400 μg/mL G418. Cells were maintained in 5% CO2 at 37° C. At 24 hr prior to assay, cells were seeded in black wall, clear-base poly-D-lysine coated 384-well plates (BD Biosciences, N.J., USA) at a density of 5,000 cells per well in culture medium and grown overnight in 5% CO2 at 37° C. On assay day, growth media was removed, and cells were loaded with Calcium 3 Dye (Molecular Devices) for 35 min at 37° C., under 5% CO2 and then incubated for 25 min at room temperature and atmosphere. Subsequently, cells were tested for agonist-induced increases in intracellular Ca^2+ levels using FLIPR™ or FDSS. Cells were treated with compounds of the formula (I) at varying concentrations and intracellular Ca^2+ was measured for 5 min prior to the addition of icilin to all wells to achieve a final concentration that produces approximately an 80% maximal response.
Basal FI was subtracted prior to normalizing data to percent of maximal response. Curves were generated using the average of quadruplicate wells for each data point using nonlinear regression of either sigmoidal dose response or sigmoidal dose response (variable slope). Finally, the EC50 and IC50 values were calculated with the best-fit curve determined by GraphPad Prism
Test samples were prepared by diluting a 10 mM stock solution of test compound with 100% DMSO prior to addition to assay buffer.

[1] = re-test, samples diluted from 10 mM stock with 100% DMSO before addition to assay buffer, Table 7
[2] = HEK293 cells stably expressing canine TRPM8, icilin at ~80% maximal response, Table 6

T1 sequence (Q1A7N1 1-1104): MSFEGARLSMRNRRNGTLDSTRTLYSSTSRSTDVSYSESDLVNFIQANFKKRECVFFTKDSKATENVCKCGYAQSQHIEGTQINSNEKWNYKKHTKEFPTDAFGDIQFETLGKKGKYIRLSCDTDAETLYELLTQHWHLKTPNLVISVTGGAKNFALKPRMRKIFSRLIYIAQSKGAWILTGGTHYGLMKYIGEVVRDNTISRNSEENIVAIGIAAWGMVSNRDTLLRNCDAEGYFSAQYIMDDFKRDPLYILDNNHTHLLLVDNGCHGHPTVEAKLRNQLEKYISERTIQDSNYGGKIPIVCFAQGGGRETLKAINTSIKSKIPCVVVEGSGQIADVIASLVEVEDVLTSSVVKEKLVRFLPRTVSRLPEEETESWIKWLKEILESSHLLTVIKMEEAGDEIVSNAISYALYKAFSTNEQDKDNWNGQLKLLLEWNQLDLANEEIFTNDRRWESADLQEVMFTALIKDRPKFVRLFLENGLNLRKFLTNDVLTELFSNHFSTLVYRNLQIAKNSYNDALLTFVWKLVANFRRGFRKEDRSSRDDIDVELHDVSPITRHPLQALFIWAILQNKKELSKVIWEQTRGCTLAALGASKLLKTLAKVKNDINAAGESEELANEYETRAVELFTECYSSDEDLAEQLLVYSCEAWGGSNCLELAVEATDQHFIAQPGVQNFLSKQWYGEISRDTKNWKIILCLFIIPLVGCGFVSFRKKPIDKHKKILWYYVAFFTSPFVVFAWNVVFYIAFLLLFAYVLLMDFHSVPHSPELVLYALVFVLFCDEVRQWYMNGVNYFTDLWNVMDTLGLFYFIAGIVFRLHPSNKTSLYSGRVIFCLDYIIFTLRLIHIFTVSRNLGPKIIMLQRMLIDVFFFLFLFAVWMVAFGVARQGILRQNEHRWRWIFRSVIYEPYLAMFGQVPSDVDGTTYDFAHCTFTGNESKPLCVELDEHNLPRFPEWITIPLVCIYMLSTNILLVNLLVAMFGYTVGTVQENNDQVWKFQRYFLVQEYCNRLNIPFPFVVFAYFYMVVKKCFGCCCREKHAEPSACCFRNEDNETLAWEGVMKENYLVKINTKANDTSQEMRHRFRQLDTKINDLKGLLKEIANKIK

Row | Compound | % Inh @ 0.2 μM (Table 6) | inhibition at 0.2 µM (Table 6) | also measured
1 | Cn1c(=NS(=O)(=O)c2ccccc2)n(Cc2ccc(F)c(C(F)(F)F)c2)c2ccccc21 [Compound 1] | 40% | – | –
2 | Cn1c(=NS(=O)(=O)c2ccccc2)n(Cc2ccc(OC(F)(F)F)cc2)c2ccccc21 [Compound 2] | 34% | – | –
3 | Cn1c(=NS(=O)(=O)c2ccccc2)n(Cc2ccccc2)c2ccccc21 [Compound 3] | 8% | – | % Inh @ 1 μM (re-test, Table 7): 40%
4 | Cn1/c(=N/S(=O)(=O)c2ccccc2)n(Cc2cccc(C(F)(F)F)c2)c2ccccc21 [Compound 4, N-[1-Methyl-3-(3-trifluoromethyl-benzyl)-1,3-dihydro-benzimidazol-2-ylidene]-benzenesulfonamide] | – | 42% | –
5 | Cn1c(=NS(=O)(=O)c2ccccc2)n(Cc2cccc(OC(F)(F)F)c2)c2ccccc21 [Compound 5] | 50% | – | –
6 | Cn1c(=NS(=O)(=O)c2ccccc2)n(Cc2ccc(C(F)(F)F)cc2)c2ccccc21 [Compound 6] | 2% | – | % Inh @ 1 μM (re-test, Table 7): 65%
7 | Cn1c(=NS(=O)(=O)c2ccccc2)n(Cc2ccc(F)c(F)c2)c2ccccc21 [Compound 7] | 24% | – | –
8 | Cn1c(=NS(=O)(=O)c2ccccc2)n(Cc2ccc(F)cc2)c2ccccc21 [Compound 8] | 20% | – | –
9 | Cn1c(=NS(=O)(=O)c2ccccc2)n(Cc2cc(C(F)(F)F)ccc2F)c2ccccc21 [Compound 9] | 39% | – | –
10 | Cn1c(=NS(=O)(=O)c2ccccc2)n(Cc2ccc(C(F)(F)F)c(F)c2)c2ccccc21 [Compound 10] | 22% | – | –
11 | Cn1c(=NS(=O)(=O)c2ccccc2)n(Cc2ccc(F)c(Cl)c2)c2ccccc21 [Compound 11] | 38% | – | –
12 | Cn1c(=NS(=O)(=O)c2ccccc2)n(Cc2ccc(SC(F)(F)F)cc2)c2ccccc21 [Compound 12] | 11% | – | –
13 | Cn1c(=NS(=O)(=O)c2ccccc2)n(Cc2ccc(OC(F)F)cc2)c2ccccc21 [Compound 13] | – | 9% | inhibition at 1 µM (re-test, Table 7): 55%; IC50 [1]: 764 nM
14 | CCn1c(=NS(=O)(=O)c2ccccc2)n(Cc2ccc(OC(F)(F)F)cc2)c2ccccc21 [Compound 14] | 75% | – | IC50 [2]: 100 nM
15 | CCn1c(=NS(=O)(=O)c2ccccc2)n(Cc2ccc(C(F)(F)F)cc2)c2ccccc21 [Compound 15] | 85% | – | IC50 [2]: 69 nM
16 | Cn1c(=NS(=O)(=O)c2ccc(F)cc2)n(Cc2ccc(C(F)(F)F)cc2)c2ccccc21 [Compound 16] | 1% | – | % Inh @ 1 μM (re-test, Table 7): 57%
17 | Cn1c(=NS(=O)(=O)c2ccc(F)cc2)n(Cc2ccc(OC(F)(F)F)cc2)c2ccccc21 [Compound 17] | – | 6% | inhibition at 1 µM (re-test, Table 7): 60%; IC50 [1]: 606 nM
18 | Cn1c(=NS(=O)(=O)c2ccc(C(F)(F)F)cc2)n(Cc2ccc(OC(F)(F)F)cc2)c2ccccc21 [Compound 18] | – | 1% | inhibition at 1 µM (re-test, Table 7): 57%; IC50 [1]: 635 nM
19 | Cn1c(=NS(=O)(=O)c2ccc(Cl)cc2)n(Cc2ccc(C(F)(F)F)cc2)c2ccccc21 [Compound 19] | 13% | – | –
20 | Cn1c(=NS(=O)(=O)c2ccc(Cl)cc2)n(Cc2ccc(OC(F)(F)F)cc2)c2ccccc21 [Compound 20] | – | 2% | inhibition at 1 µM (re-test, Table 7): 74%; IC50 [1]: 430 nM
21 | Cn1c(=NS(=O)(=O)c2ccc(C(F)(F)F)cc2)n(Cc2ccc(C(F)(F)F)cc2)c2ccccc21 [Compound 21] | – | 8% | inhibition at 1 µM (re-test, Table 7): 59%; IC50 [1]: 588 nM
22 | Cn1c(=NS(=O)(=O)c2ccc(Cl)cc2)n(Cc2ccc(C(F)(F)F)c(F)c2)c2ccccc21 [Compound 22] | 6% | – | % Inh @ 1 μM (re-test, Table 7): 77%; IC50 [1]: 512 nM
23 | Cn1c(=NS(=O)(=O)c2ccc(C(F)(F)F)cc2)n(Cc2ccc(C(F)(F)F)c(F)c2)c2ccccc21 [Compound 23] | – | 3% | inhibition at 1 µM (re-test, Table 7): 59%; IC50 [1]: 764 nM
24 | Cn1c(=NS(=O)(=O)c2ccc(F)cc2)n(Cc2ccc(C(F)(F)F)c(F)c2)c2ccccc21 [Compound 24] | 3% | – | % Inh @ 1 μM (re-test, Table 7): 85%; IC50 [1]: 379 nM
25 | CCn1c(=NS(=O)(=O)c2ccccc2)n(Cc2ccc(C(F)(F)F)c(F)c2)c2ccccc21 [Compound 25] | 62% | – | –

Row | Compound | % Inh @ 0.2 μM (Table 6) | inhibition at 0.2 µM (Table 6) | also measured
26 | CC(C)Cn1c(=NS(=O)(=O)c2ccccc2)n(Cc2ccc(C(F)(F)F)c(F)c2)c2ccccc21 [Compound 26] | – | 100% | IC50 [2]: 14 nM
27 | CC(C)Cn1c(=NS(=O)(=O)c2ccccc2)n(Cc2ccc(C(F)(F)F)cc2)c2ccccc21 [Compound 27] | 71% | – | IC50 [2]: 43 nM
28 | CC(C)Cn1c(=NS(=O)(=O)c2ccccc2)n(Cc2ccc(OC(F)(F)F)cc2)c2ccccc21 [Compound 28] | – | 70% | IC50 [2]: 58 nM
29 | Cn1c(=NS(=O)(=O)c2ccccc2)n(Cc2ccc(C(F)(F)F)cc2)c2cc(C(F)(F)F)ccc21 [Compound 29] | 19% | – | –
30 | Cn1c(=NS(=O)(=O)c2ccccc2)n(Cc2ccc(OC(F)(F)F)cc2)c2cc(C(F)(F)F)ccc21 [Compound 30] | 17% | – | –
31 | Cn1c(=NS(=O)(=O)c2ccccc2)n(Cc2ccc(C(F)(F)F)c(F)c2)c2cc(C(F)(F)F)ccc21 [Compound 31] | – | 71% | IC50 [2]: 39 nM
32 | CCn1c(=NS(=O)(=O)c2ccccc2)n(Cc2ccc(C(F)(F)F)c(F)c2)c2cc(F)ccc21 [Compound 33] | 70% | – | –
33 | CC(C)n1c(=NS(=O)(=O)c2ccccc2)n(Cc2ccc(OC(F)(F)F)cc2)c2cc(C(F)(F)F)ccc21 [Compound 34] | – | 95% | IC50 [2]: 24 nM
34 | CC(C)n1c(=NS(=O)(=O)c2ccccc2)n(Cc2ccc(C(F)(F)F)c(F)c2)c2cc(C(F)(F)F)ccc21 [Compound 35] | 100% | – | IC50 [2]: 10 nM
35 | CCn1c(=NS(=O)(=O)c2ccccc2)n(Cc2ccc(OC(F)(F)F)cc2)c2cc(F)ccc21 [Compound 36] | 36% | – | –
36 | Cn1c(=NS(=O)(=O)c2ccccc2)n(Cc2ccc(C(F)(F)F)cc2)c2cc(F)ccc21 [Compound 38] | 1% | – | % Inh @ 1 μM (re-test, Table 7): 24%
37 | CCn1/c(=N/S(=O)(=O)c2ccccc2)n(Cc2ccc(C(F)(F)F)cc2)c2cc(F)ccc21 [Compound 39, N-[1-Ethyl-5-fluoro-3-(4-trifluoromethyl-benzyl)-1,3-dihydro-benzimidazol-2-ylidene]-benzenesulfonamide] | – | 26% | –
38 | O=S(=O)(N=c1n(Cc2ccc(C(F)(F)F)cc2)c2ccccc2n1CC(F)(F)F)c1ccccc1 [Compound 40] | – | 9% | inhibition at 1 µM (re-test, Table 7): 57%; IC50 [1]: 426 nM
39 | Cn1c(=NS(=O)(=O)c2ccccc2)n(Cc2ccc(C(F)(F)F)c(F)c2)c2cc(F)ccc21 [Compound 41] | 6% | – | % Inh @ 1 μM (re-test, Table 7): 79%
40 | CC(C)n1c(=NS(=O)(=O)c2ccccc2)n(Cc2ccc(C(F)(F)F)c(F)c2)c2cc(Cl)ccc21 [Compound 42] | – | 95% | IC50 [2]: 26 nM
41 | O=S(=O)(/N=c1\n(Cc2ccc(C(F)(F)F)c(F)c2)c2ccccc2n1CC(F)(F)F)c1ccccc1 [Compound 43, N-[1-(3-Fluoro-4-trifluoromethyl-benzyl)-3-(2,2,2-trifluoro-ethyl)-1,3-dihydro-benzimidazol-2-ylidene]-benzenesulfonamide] | – | 89% | IC50 [2]: 21 nM
42 | O=S(=O)(N=c1n(Cc2ccc(OC(F)(F)F)cc2)c2ccccc2n1CC(F)(F)F)c1ccccc1 [Compound 44] | 37% | – | –
43 | CC(C)n1c(=NS(=O)(=O)c2ccccc2)n(Cc2ccc(OC(F)(F)F)cc2)c2cc(Cl)ccc21 [Compound 45] | 66% | – | –
44 | Cn1c(=NS(=O)(=O)c2ccccc2)n(Cc2ccc(OC(F)(F)F)cc2)c2cc(F)ccc21 [Compound 46] | 1% | – | % Inh @ 1 μM (re-test, Table 7): 58%
45 | O=S(=O)(N=c1n(Cc2ccc(OC(F)(F)F)cc2)c2ccccc2n1CC1CC1)c1ccccc1 [Compound 48] | 67% | – | –
46 | O=S(=O)(N=c1n(Cc2ccc(C(F)(F)F)cc2)c2ccccc2n1CC1CC1)c1ccccc1 [Compound 49] | – | 71% | IC50 [2]: 110 nM
47 | O=S(=O)(/N=c1\n(Cc2ccc(C(F)(F)F)c(F)c2)c2ccccc2n1CC1CC1)c1ccccc1 [Compound 50, N-[1-Cyclopropylmethyl-3-(3-fluoro-4-trifluoromethyl-benzyl)-1,3-dihydro-benzimidazol-2-ylidene]-benzenesulfonamide] | – | 94% | IC50 [2]: 86 nM
48 | O=S(=O)(N=c1n(Cc2ccc(C(F)(F)F)c(F)c2)c2cccc3c2n1CCC3)c1ccccc1 [Compound 51] | 14% | – | –
49 | O=S(=O)(N=c1n(Cc2ccc(OC(F)(F)F)cc2)c2cccc3c2n1CCC3)c1ccccc1 [Compound 52] | 18% | – | –
50 | O=S(=O)(N=c1n(Cc2ccc(C(F)(F)F)cc2)c2cccc3c2n1CCC3)c1ccccc1 [Compound 53] | 16% | – | –
